# Results taken from patent publication US20240368181A1, “QUINOXALINE DERIVATIVES AND USES THEREOF” (Black Diamond Therapeutics, Inc., priority 2021, published 2024).
# Columns and labels:
# Type in all cases: cell-based
# [1] = system: SNU-16 (FGFR2-amplification) cells; assay: Cell proliferation assay (CellTiterGlo), SNU-16 cells; conditions: inhibition of cell growth, intracellular ATP (CellTiterGlo)
# Text: (§1) The following is a non-limiting example that describes a cell proliferation assay used to determine the biological activity of the compounds of the present disclosure. More specifically, the assay as used to assess the ability of the compounds to inhibit cell proliferation.
# (§2) Briefly, SNU-16 (FGFR2-amplification) cells, were resuspended at 18,520c/ml mL in RPMI containing 10% Heat Inactivated FBS, 1% L-glutamine and dispensed in duplicate (463c/well) into 384 well plates. UM-UC-14 (FGFR3-S249C) cells were resuspended at 40.000c/ml mL in RPMI containing 10% Heat Inactivated FBS, 1% L-glutamine and dispensed in duplicate (1000c/well) into 384 well plates. DMS-114 (FGFR1 overexpression) cells and were resuspended at 40,000c/ml mL in RPMI containing 10% Heat Inactivated FBS, 1% L-glutamine and dispensed in duplicate (1000c/well) into 384 well plates. RT-112 (FGFR3-Tacc3 fusion) cells were resuspended at 40,000c/ml mL in RPMI containing 10% Heat Inactivated FBS, 1% L-glutamine and dispensed in duplicate (1000c/well) into 384 well plates. To determine the effect of the compounds of the present disclosure on cell proliferation, SNU-16, UM-UC-14, DMS-114 and RT112 cells were incubated for 72 hours in the presence of vehicle control (DMSO) or a compound of the present disclosure at varying concentrations. Inhibition of cell growth was subsequently determined by luminescent quantification (Envision by Perkin Elmer) of intracellular ATP content using CellTiterGlo (Promega), according to the protocol provided by the manufacturer. To determine the IC50 values, the vehicle-treated cells were normalized as viable cells and analyzed using the CDD Vault software (Collaborative Drug Discovery, Burlingame, CA).
# [2] = system: RT-112 (FGFR3-Tacc3 fusion) cells; assay: Cell proliferation assay (CellTiterGlo), RT-112 cells; conditions: RT112 cells, inhibition of cell growth, intracellular ATP (CellTiterGlo)
# Text: as §1, §2
# [3] = system: UM-UC-14 (FGFR3-S249C) cells; assay: Cell proliferation assay (CellTiterGlo), UM-UC-14 cells; conditions: UMUC14, 72 h, inhibition of cell growth, intracellular ATP (CellTiterGlo)
# Text: as §1, §2
# [4] = system: DMS-114 (FGFR1 overexpression) cells; assay: Cell proliferation assay (CellTiterGlo), DMS-114 cells; conditions: 72 hours, inhibition of cell growth, intracellular ATP (CellTiterGlo)
# Text: as §1, §2
# [5] = system: RT-112 (FGFR3-Tacc3 fusion) cells; assay: cell proliferation assay (CellTiterGlo), RT-112 cells; conditions: Homo sapiens, RT-112, RT112 cells, 72 hours
# In short: (§3)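 Cells were suspended, dispensed into plates and incubated with vehicle (DMSO) or test compound at varying concentrations. Growth inhibition was measured by luminescent quantification of intracellular ATP (CellTiterGlo). IC50 values came from growth normalized to vehicle-treated cells taken as viable.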
# [6] = system: SNU-16 (FGFR2-amplification) cells; assay: cell proliferation assay (CellTiterGlo), SNU-16 cells; conditions: Homo sapiens, 72 hours
# In short: as §3
# [7] = system: DMS-114 (FGFR1 overexpression) cells; assay: cell proliferation assay (CellTiterGlo), DMS-114 cells; conditions: Homo sapiens, DMS-114, 72 h
# In short: as §3
# [8] = system: UM-UC-14 (FGFR3-S249C) cells; assay: cell proliferation assay (CellTiterGlo), UM-UC-14 cells; conditions: UMUC14, 72 h
# In short: as §3
Compound,"IC50 ([1]; Homo sapiens, SNU-16, 72 h)","IC50 ([2]; Homo sapiens, RT-112, 72 h)",IC50 [3],IC50 ([4]; Homo sapiens),further results
C=CC(=O)N1CCC(Cn2cc(-c3cnc4ccc(Oc5ccc6nc(C)[nH]c6c5)c(Cl)c4n3)cn2)CC1 [Compound 38],0.02 to 0.1 µM,< 0.02 µM,0.02 to 0.1 µM,0.1 to 0.4 µM,
Cc1nc2ccc(Oc3ccc4ncc(-c5cnn(CC6CCNCC6)c5)nc4c3Cl)cc2[nH]1 [Compound 11],,0.02 to 0.1 µM,0.1 to 0.4 µM,≥ 0.4 µM,IC50 ([1]; 72 hours): 0.02 to 0.1 µM
Cc1nc2ccc(Oc3ccc4ncc(-c5cnn(C6CCNC6)c5)nc4c3Cl)cc2[nH]1 (stereo not shown) [Compound 27],0.1 to 0.4 µM,0.02 to 0.1 µM,0.02 to 0.1 µM,≥ 0.4 µM,
Cc1nc2ccc(Oc3ccc4ncc(-c5cn(CC6CCN(C)CC6)nc5C)nc4c3Cl)cc2[nH]1 [Compound 32],0.02 to 0.1 µM,0.02 to 0.1 µM,0.02 to 0.1 µM,≥ 0.4 µM,
COc1cc(Oc2ccc3ncc(-c4cnn(CC5CCN(C)CC5)c4)nc3c2Cl)cc2[nH]c(C)nc12 [Compound 46],0.1 to 0.4 µM,0.1 to 0.4 µM,≥ 0.4 µM,≥ 0.4 µM,
Cc1nc2ccc(Oc3ccc4ncc(-c5cnn(CC6CCN(C)CC6)c5)nc4c3F)cc2[nH]1 [Compound 36],0.1 to 0.4 µM,0.1 to 0.4 µM,0.1 to 0.4 µM,≥ 0.4 µM,
Cc1nc2ccc(Oc3ccc4ncc(-c5cnn(CC6CC(F)(F)C6)c5)nc4c3Cl)c(F)c2[nH]1 [Compound 68],0.02 to 0.1 µM,0.02 to 0.1 µM,0.02 to 0.1 µM,≥ 0.4 µM,
Cc1nc2ccc(Oc3ccc4ncc(-c5c(C)nn(CC6CCN(C)CC6)c5C)nc4c3Cl)cc2[nH]1 [Compound 52],0.1 to 0.4 µM,0.1 to 0.4 µM,0.1 to 0.4 µM,≥ 0.4 µM,
Cc1nc2ccc(Oc3cc4nc(-c5cnn(CC6CCN(C)CC6)c5)cnc4cc3F)cc2[nH]1 [Compound 49],≥ 0.4 µM,≥ 0.4 µM,≥ 0.4 µM,≥ 0.4 µM,
Cc1nc2ccc(Oc3ccc4ncc(-c5cnn(CC6COC6)c5)nc4c3Cl)cc2[nH]1 [Compound 17],≥ 0.4 µM,≥ 0.4 µM,≥ 0.4 µM,≥ 0.4 µM,
Cc1ccc2ccc(Oc3ccc4ncc(-c5cnn(CC6CCN(C)CC6)c5)nc4c3Cl)cc2n1 [Compound 65],≥ 0.4 µM,≥ 0.4 µM,≥ 0.4 µM,≥ 0.4 µM,
CC(=O)N1CCC(Cn2cc(-c3cnc4ccc(Oc5ccc6nc(C)[nH]c6c5)c(Cl)c4n3)cn2)CC1 [Compound 34],,< 0.02 µM,0.02 to 0.1 µM,≥ 0.4 µM,
Cc1nc2ccc(Oc3ccc4ncc(-c5cnn(CC6CCN(C7COC7)CC6)c5)nc4c3Cl)cc2[nH]1 [Compound 35],< 0.02 µM,< 0.02 µM,0.02 to 0.1 µM,≥ 0.4 µM,
Cc1nc2ccc(Oc3ccc4ncc(-c5cnn(CC6CCNC6)c5)nc4c3Cl)cc2[nH]1 (stereo not shown) [Compound 10],0.02 to 0.1 µM,0.02 to 0.1 µM,0.1 to 0.4 µM,≥ 0.4 µM,
Cc1nc2ccc(Oc3ccc4ncc(-c5cnn(CC6CCN(C(=O)C(F)(F)F)CC6)c5)nc4c3Cl)cc2[nH]1 [Compound 18],0.02 to 0.1 µM,0.02 to 0.1 µM,0.02 to 0.1 µM,≥ 0.4 µM,
C=CC(=O)N1CCC(CCn2cc(-c3cnc4ccc(Oc5ccc6nc(C)[nH]c6c5)cc4n3)cn2)CC1 [Compound 54],,0.1 to 0.4 µM,0.1 to 0.4 µM,≥ 0.4 µM,
Cc1nc2ccc(Oc3ccc4ncc(-c5cnn(C6CCN(C)C6)c5)nc4c3Cl)cc2[nH]1 (stereo not shown) [Compound 26],< 0.02 µM,< 0.02 µM,0.02 to 0.1 µM,0.1 to 0.4 µM,
COCCN1CCC(Cn2cc(-c3cnc4ccc(Oc5ccc6nc(C)[nH]c6c5)c(Cl)c4n3)cn2)CC1 [Compound 30],< 0.02 µM,< 0.02 µM,< 0.02 µM,0.1 to 0.4 µM,
Cc1nc2ccc(Oc3ccc4ncc(-c5cnn(CC#N)c5)nc4c3Cl)cc2[nH]1 [Compound 6],0.02 to 0.1 µM,0.02 to 0.1 µM,0.1 to 0.4 µM,≥ 0.4 µM,
Cc1nc2ccc(Oc3ccc4ncc(-c5cnn(CC6CC6)c5)nc4c3Cl)cc2[nH]1 [Compound 44],0.1 to 0.4 µM,0.1 to 0.4 µM,0.1 to 0.4 µM,≥ 0.4 µM,
Cc1nc2ccc(Oc3ccc4ncc(-c5cnn(CC6CCOCC6)c5)nc4c3Cl)cc2[nH]1 [Compound 58],,0.02 to 0.1 µM,0.02 to 0.1 µM,0.1 to 0.4 µM,
Cc1nc2ccc(Oc3ccc4ncc(-c5cnn(CC6CCN(C)CC6)c5C)nc4c3Cl)cc2[nH]1 [Compound 31],0.02 to 0.1 µM,0.02 to 0.1 µM,0.02 to 0.1 µM,0.1 to 0.4 µM,
Cc1nc2ccc(Oc3ccc4ncc(-c5cnn(CC6CCN(C)CC6)c5)nc4c3)cc2[nH]1 [Compound 57],,≥ 0.4 µM,0.1 to 0.4 µM,≥ 0.4 µM,
Cc1nc2ccc(Oc3ccc4ncc(-c5cnn(CC6CCNCC6)c5)nc4c3Cl)cc2[nH]1 [Compound 47],,,,,IC50 ([1]; 72 hours): 0.1 to 0.4 µM; IC50 ([2]; 72 hours): 0.02 to 0.1 µM; IC50 [4]: ≥ 0.4 µM
C=CC(=O)N1CCC(Cn2cc(-c3cnc4ccc(Oc5ccc6nc(C)[nH]c6c5)cc4n3)cn2)CC1 [Compound 56],,0.1 to 0.4 µM,≥ 0.4 µM,≥ 0.4 µM,
Cc1nc2ccc(Oc3ccc4ncc(-c5cnn(CC6CC(C)OC(C)C6)c5)nc4c3Cl)cc2[nH]1 (stereo not shown) [Compound 1],0.02 to 0.1 µM,,,0.02 to 0.1 µM,
Cc1nc2ccc(Oc3ccc4ncc(-c5cnn([C@H]6C[C@@H](N7CC(O)C7)C6)c5)nc4c3Cl)cc2[nH]1 [Compound 213],,,,,IC50 [5]: 0.02 to 0.1 µM; IC50 [6]: 0.02 to 0.1 µM; IC50 [7]: 0.1 to 0.4 µM; IC50 [8]: 0.02 to 0.1 µM
Clc1c(Oc2ccn3cncc3c2)ccc2ncc(-c3cnn(CC4CCNCC4)c3)nc12 [Compound 341],,,,,IC50 [5]: ≥ 0.4 µM; IC50 [6]: ≥ 0.4 µM; IC50 [7]: ≥ 0.4 µM; IC50 [8]: ≥ 0.4 µM
Cc1nc2ccc(Oc3ccc4ncc(-c5cnn(CC6CCNCC6)c5)nc4c3C)cc2[nH]1 [Compound 292],,,,,IC50 [5]: 0.1 to 0.4 µM; IC50 [6]: 0.1 to 0.4 µM; IC50 [7]: ≥ 0.4 µM; IC50 [8]: 0.02 to 0.1 µM
CCc1nc2cc(Oc3ccc4ncc(-c5cnn(CC6CC(F)(F)C6)c5)nc4c3Cl)ccc2[nH]1 [Compound 219],,,,,IC50 [5]: 0.1 to 0.4 µM; IC50 [6]: 0.1 to 0.4 µM; IC50 [7]: ≥ 0.4 µM; IC50 [8]: 0.1 to 0.4 µM
